The CheMixHub viscosity set

Test: xn = mol fraction of the nth substance listed

Nc1ccccc1Cl + Cc1ccccc1Cl
viscosity [mPa·s], 101 kPa
Conditions	x1 = 0.11	x1 = 0.2176	x1 = 0.3228	x1 = 0.4258	x1 = 0.5266	x1 = 0.6253	x1 = 0.7219	x1 = 0.8165	x1 = 0.9092
303.15 K	1.073	1.284	1.521	1.782	2.069	2.379	2.711	3.065	3.437
308.15 K	0.9808	1.175	1.392	1.63	1.888	2.164	2.458	2.765	3.084
313.15 K	0.8896	1.07	1.271	1.49	1.726	1.976	2.238	2.507	2.783
318.15 K	0.7935	0.9642	1.153	1.358	1.578	1.808	2.045	2.286	2.526

CCCCOCCOCCO + ClC(Cl)(Cl)Cl
298.15 K, 101.33 kPa
Conditions	viscosity [mPa·s]
x1 = 0.02	0.948
x1 = 0.038	0.989
x1 = 0.0629	1.05
x1 = 0.0892	1.14
x1 = 0.1363	1.29
x1 = 0.18	1.442
x1 = 0.2249	1.63
x1 = 0.2644	1.796
x1 = 0.3052	1.974
x1 = 0.4307	2.594
x1 = 0.4809	2.841
x1 = 0.5267	3.065
x1 = 0.5721	3.292
x1 = 0.6126	3.489
x1 = 0.6679	3.769
x1 = 0.7225	4.032
x1 = 0.7669	4.227
x1 = 0.8132	4.438
x1 = 0.8674	4.688
x1 = 0.9149	4.885
x1 = 0.9436	5.01
x1 = 0.9724	5.074

Cc1ccccc1N + ClC(Cl)(Cl)Cl
viscosity [mPa·s], 100 kPa
Conditions	x2 = 0.0901	x2 = 0.1916	x2 = 0.2917	x2 = 0.3903	x2 = 0.4988	x2 = 0.6089	x2 = 0.6981	x2 = 0.7941	x2 = 0.8847
298.15 K	3.473	3.194	2.917	2.642	2.337	2.026	1.772	1.497	1.235
303.15 K	3.049	2.812	2.575	2.34	2.079	1.812	1.593	1.356	1.13
308.15 K	2.65	2.452	2.254	2.056	1.836	1.611	1.426	1.224	1.032
313.15 K	2.34	2.172	2.003	1.834	1.646	1.452	1.292	1.118	0.951
318.15 K	2.033	1.895	1.755	1.616	1.459	1.296	1.162	1.016	0.874

Nc1ccccc1Cl + ClC(Cl)(Cl)Cl
viscosity [mPa·s], 100 kPa
Conditions	x2 = 0.1011	x2 = 0.1916	x2 = 0.2901	x2 = 0.3811	x2 = 0.4923	x2 = 0.5989	x2 = 0.6911	x2 = 0.7741	x2 = 0.8897
298.15 K	3.882	3.589	3.268	2.97	2.604	2.25	1.942	1.664	1.273
303.15 K	3.532	3.269	2.981	2.713	2.382	2.063	1.785	1.533	1.179
308.15 K	3.158	2.927	2.675	2.439	2.149	1.868	1.622	1.4	1.086
313.15 K	2.837	2.634	2.411	2.203	1.947	1.699	1.482	1.284	1.005
318.15 K	2.566	2.387	2.189	2.004	1.776	1.554	1.361	1.185	0.934

CCCCOCCOCCO + ClC(Cl)=C(Cl)Cl
298.15 K, 101.33 kPa
Conditions	viscosity [mPa·s]
x1 = 0.0092	0.859
x1 = 0.0253	0.883
x1 = 0.0385	0.91
x1 = 0.0481	0.929
x1 = 0.0583	0.95
x1 = 0.0816	1.001
x1 = 0.0932	1.03
x1 = 0.1188	1.09
x1 = 0.1559	1.186
x1 = 0.1903	1.289
x1 = 0.2322	1.413
x1 = 0.2748	1.557
x1 = 0.3127	1.691
x1 = 0.3556	1.851
x1 = 0.3911	2
x1 = 0.4295	2.16
x1 = 0.4585	2.288
x1 = 0.4917	2.445
x1 = 0.531	2.635
x1 = 0.575	2.845
x1 = 0.6181	3.066
x1 = 0.666	3.31
x1 = 0.7112	3.548
x1 = 0.7734	3.894
x1 = 0.8415	4.283
x1 = 0.8983	4.615
x1 = 0.929	4.805
x1 = 0.9482	4.918
x1 = 0.9696	5.061
x2 = 0.0169	5.131

Cc1cccc(C)c1 + ClC(Cl)Cl
298.15 K, 101 kPa
Conditions	viscosity [mPa·s]
x2 = 0.2254	0.5977
x2 = 0.4357	0.6026
x2 = 0.4615	0.6004
x2 = 0.5258	0.5981
x2 = 0.5786	0.5938
x2 = 0.6284	0.593
x2 = 0.6945	0.5876
x2 = 0.7272	0.5844
